Counter-ions that a name gives are not always drawn.

The assay concerns the target T1, CCR2 (Homo sapiens, UniProt P41597).
T1 construct: host or cells: THP-1 (human monocytic cell line)
T1 sequence (P41597 1-360 isoform P41597-2): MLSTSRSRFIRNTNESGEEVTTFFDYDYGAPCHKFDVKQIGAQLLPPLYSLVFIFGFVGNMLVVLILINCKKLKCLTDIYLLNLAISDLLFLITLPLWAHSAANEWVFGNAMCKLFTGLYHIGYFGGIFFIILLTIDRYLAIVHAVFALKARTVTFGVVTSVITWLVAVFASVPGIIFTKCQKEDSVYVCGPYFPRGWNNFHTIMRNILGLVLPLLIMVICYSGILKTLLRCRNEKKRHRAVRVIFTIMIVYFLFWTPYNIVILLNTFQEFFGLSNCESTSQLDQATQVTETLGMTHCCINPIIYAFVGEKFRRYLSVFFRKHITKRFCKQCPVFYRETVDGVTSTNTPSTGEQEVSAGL
In words: MCP-1 Receptor Binding Assay in THP-1 Cells (125I labeled MCP-1). The settings on record: 0.5 nM 125I labeled MCP-1, 2 hours at 30° C., read-out: Inhibition of MCP-1 Binding IC50, CCR2 Binding. On the procedure: Compounds of the invention were subjected to various representative biological tests. […] MCP-1 Receptor Binding Assay in THP-1 Cells
Human monocytic cell line THP-1 cells were obtained from American Type Culture Collection (Manassas, Va., USA). […] The cell density was maintained […].
1 μM cold MCP-1 was used for nonspecific binding.
What is called IC50 is the point on the concentration scale where inhibition reaches its midpoint. For the molecule `O=C(CNC(=O)c1cccc(C(F)(F)F)c1)NC1CN(C2CCC(c3cnccc3O)CC2)C1` (stereo not shown) [Example 11, N-({1-[4-(4-Hydroxy-pyridin-3-yl)-cyclohexyl]-azetidin-3-ylcarbamoyl}-methyl)-3-trifluoromethyl-benzamide], the IC50 is 460 nM. As for `Cc1ccc(O)c(C2CCC(N3CC(NC(=O)CNC(=O)c4cccc(C(F)(F)F)c4)C3)CC2)n1` (stereo not shown) [Example 6, N-({1-[4-(3-Hydroxy-6-methyl-pyridin-2-yl)-cyclohexyl]-azetidin-3-ylcarbamoyl}-methyl)-3-trifluoromethyl-benzamide], the figure is 50 nM; as for `CCn1cc(C2CCC(N3CC(NC(=O)CNC(=O)c4cccc(C(F)(F)F)c4)C3)CC2)ccc1=O` (stereo not shown) [Example 39a, N-({1-[4-(1-Ethyl-6-oxo-1,6-dihydro-pyridin-3-yl)-cyclohexyl]-azetidin-3-ylcarbamoyl}-methyl)-3-trifluoromethyl-benzamide], 37 nM. On to `O=C(CNC(=O)c1cccc(C(F)(F)F)c1)NC1CN(C2CCC(c3nc4n(n3)CCCC4)CC2)C1` (mixture of isomers) [Example 63, N-({1-[4-(5,6,7,8-Tetrahydro-[1,2,4]-triazolo[1,5-a]pyridin-2-yl)-cyclohexyl]-azetidin-3-ylcarbamoyl}-methyl)-3-trifluoromethyl-benzamide], for which the concentration for half-maximal inhibition (IC50) came to 1500 nM. On to `Cn1cc(C2CCC(N3CC(NC(=O)CNC(=O)c4cccc(C(F)(F)F)c4)C3)CC2)c(=O)[nH]c1=O` (stereo not shown) [Example 56, N-({1-[4-(1-Methyl-2,4-dioxo-1,2,3,4-tetrahydro-pyrimidin-5-yl)-cyclohexyl]-azetidin-3-ylcarbamoyl}-methyl)-3-trifluoromethyl-benzamide], for which the IC50 was determined as 5800 nM. As for `CC(C)n1cc(C2CCC(N3CC(NC(=O)CNC(=O)c4cccc(C(F)(F)F)c4)C3)CC2)ccc1=O` (single isomer, unassigned) [Example 40a, N-({1-[4-(1-Isopropyl-6-oxo-1,6-dihydro-pyridin-3-yl)-cyclohexyl]-azetidin-3-ylcarbamoyl}-methyl)-3-trifluoromethyl-benzamide], the figure is 330 nM. Consider `O=C(CNC(=O)c1cccc(C(F)(F)F)c1)NC1CN(C2CCC(c3noc(C(Cl)(Cl)Cl)n3)CC2)C1` (stereo not shown) [Example 58, N-({1-[4-(5-Trichloromethyl-[1,2,4]oxadiazol-3-yl)-cyclohexyl]-azetidin-3-ylcarbamoyl}-methyl)-3-trifluoromethyl-benzamide], for which the IC50 came out at 510 nM.

Turning to `O=C(CNC(=O)c1cccc(C(F)(F)F)c1)NC1CN(C2CCC(c3ccc(O)cn3)CC2)C1` (stereo not shown) [Example 4, N-({1-[4-(5-Hydroxy-pyridin-2-yl)-cyclohexyl]-azetidin-3-ylcarbamoyl}-methyl)-3-trifluoromethyl-benzamide hemisuccinate salt], the IC50 worked out at 13 nM. Turning to `O=C(CNC(=O)c1cccc(C(F)(F)F)c1)NC1CN(C2CCC(c3noc(=O)[nH]3)CC2)C1` (stereo not shown) [Example 57, N-({1-[4-(5-Oxo-4,5-dihydro-[1,2,4]oxadiazol-3-yl)-cyclohexyl]-azetidin-3-ylcarbamoyl}-methyl)-3-trifluoromethyl-benzamide], the IC50 came to 1100 nM. On to `O=C(CNC(=O)c1cccc(C(F)(F)F)c1)NC1CN(C2CCC(c3cncc(O)c3)CC2)C1` (stereo not shown) [Example 5, N-({1-[4-(5-Hydroxy-pyridin-3-yl)-cyclohexyl]-azetidin-3-ylcarbamoyl}-methyl)-3-trifluoromethyl-benzamide], for which the IC50 stood at 260 nM. The figure for `CC(=O)Nc1ccc(C2CCC(N3CC(NC(=O)CNC(=O)c4cccc(C(F)(F)F)c4)C3)CC2)nc1` (stereo not shown) [Example 13, N-({1-[4-(5-Acetylamino-pyridin-2-yl)-cyclohexyl]-azetidin-3-ylcarbamoyl}-methyl)-3-trifluoromethyl-benzamide] is 90 nM; for `COc1cc(C2CCC(N3CC(NC(=O)CNC(=O)c4cccc(C(F)(F)F)c4)C3)CC2)ccn1` (stereo not shown) [Example 7, N-({1-[4-(2-Methoxy-pyridin-4-yl)-cyclohexyl]-azetidin-3-ylcarbamoyl}-methyl)-3-trifluoromethyl-benzamide] it is 32 nM. The figure for `COc1cnccc1C1CCC(N2CC(NC(=O)CNC(=O)c3cccc(C(F)(F)F)c3)C2)CC1` (stereo not shown) [Example 8, N-({1-[4-(3-Methoxy-pyridin-4-yl)-cyclohexyl]-azetidin-3-ylcarbamoyl}-methyl)-3-trifluoromethyl-benzamide] is 25 nM; for `O=C(CNC(=O)c1cccc(C(F)(F)F)c1)NC1CN(C2CCC(c3nsc(Cl)n3)CC2)C1` (mixture of isomers) [Example 62, N-({1-[4-(5-Chloro-[1,2,4]thiadiazol-3-yl)-cyclohexyl]-azetidin-3-ylcarbamoyl}-methyl)-3-trifluoromethyl-benzamide] it is 390 nM. Consider `COc1ccc(C2CCC(N3CC(NC(=O)CNC(=O)c4cccc(C(F)(F)F)c4)C3)CC2)cn1` (single isomer, unassigned) [Example 1a, N-({1-[4-(6-Methoxy-pyridin-3-yl)-cyclohexyl]-azetidin-3-ylcarbamoyl}-methyl)-3-trifluoromethyl-benzamide], for which the IC50 came to 7 nM. On to `Nc1cccc(C2CCC(N3CC(NC(=O)CNC(=O)c4cc(F)cc(C(F)(F)F)c4)C3)CC2)n1` (stereo not shown) [Example 34, N-({1-[4-(6-Amino-pyridin-2-yl)-cyclohexyl]-azetidin-3-ylcarbamoyl}-methyl)-3-fluoro-5-trifluoromethyl-benzamide], for which the IC50 was found to be 120 nM. As for `O=C(CNC(=O)c1cccc(C(F)(F)F)c1)NC1CN(C2CCC(c3cccnc3O)CC2)C1` (stereo not shown) [Example 10, N-({1-[4-(2-Hydroxy-pyridin-3-yl)-cyclohexyl]-azetidin-3-ylcarbamoyl}-methyl)-3-trifluoromethyl-benzamide], the IC50 was 970 nM. As for `O=C(CNC(=O)c1cccc(C(F)(F)F)c1)NC1CN(C2CCC(c3c[nH]c(=O)s3)CC2)C1` (stereo not shown) [Example 54, N-({1-[4-(2-Oxo-2,3-dihydro-thiazol-5-yl)-cyclohexyl]-azetidin-3-ylcarbamoyl}-methyl)-3-trifluoromethyl-benzamide], the figure is 340 nM.

`Nc1ccc(C2CCC(N3CC(NC(=O)CNC(=O)c4cccc(C(F)(F)F)c4)C3)CC2)cn1` (single isomer, unassigned) [Example 30a, N-({1-[4-(6-Amino-pyridin-3-yl)-cyclohexyl]-azetidin-3-ylcarbamoyl}-methyl)-3-trifluoromethyl-benzamide]: the IC50 was 189 nM. The figure for `Nc1cccc(C2CCC(N3CC(NC(=O)CNC(=O)c4ccc(F)c(C(F)(F)F)c4)C3)CC2)n1` (stereo not shown) [Example 28, N-({1-[4-(6-Amino-pyridin-2-yl)-cyclohexyl]-azetidin-3-ylcarbamoyl}-methyl)-4-fluoro-3-trifluoromethyl-benzamide] is 89 nM; for `O=C(CNC(=O)c1cccc(C(F)(F)F)c1)NC1CN(C2CCC(c3cc(O)ccn3)CC2)C1` (stereo not shown) [Example 12, N-({1-[4-(4-Hydroxy-pyridin-2-yl)-cyclohexyl]-azetidin-3-ylcarbamoyl}-methyl)-3-trifluoromethyl-benzamide] it is greater than 25000 nM; for `CNc1cccc(C2CCC(N3CC(NC(=O)CNC(=O)c4cccc(C(F)(F)F)c4)C3)CC2)n1` (single isomer, unassigned) [Example 23a, N-({1-[4-(6-Methylamino-pyridin-2-yl)-cyclohexyl]-azetidin-3-ylcarbamoyl}-methyl)-3-trifluoromethyl-benzamide] it is 72 nM.
